Experimental data: US20200283726A1, “PROCESS FOR CONTINUOUS CELL CULTURE OF GPSCS” (Georgetown University, priority 2017, published 2020)

Tested on: gPSCs
Experiment: Upstream/downstream ROCK pathway inhibitors used in the culture conditions in place of a ROCK inhibitor
Format: cell-based
Excerpt: As used herein, inhibiting ROCK can mean to reduce the activity, function or expression of at least one of ROCK1 or ROCK2. […] In general, ROCK phosphorylates LIM kinase and myosin light chain (MLC) phosphatase after being activated through binding of GTP-bound Rho. One embodiment of the present invention thus involves blocking the upstream pathway of ROCK1 and/or ROCK2, for example GTP-bound Rho, such that ROCK1 and/or ROCK2 is not activated or its activity is reduced over untreated cells. Other upstream effectors include but are not limited to, integrins, growth factor receptors, including but not limited to, TGF-beta and EGFR, cadherins, G protein coupled receptors and the like. Another embodiment of the present invention thus involves blocking the activity, function or expression of downstream effector molecules of activated ROCK1 and/or ROCK2 such that ROCK1 and/or ROCK2 cannot propagate any signal or can only propagate a reduced signal over untreated cells. Downstream effectors include but are not limited to, Myosin phosphatase-targeting protein (MYPT), vimentin, LIMK, Myosin light chain kinase, NHE1, cofilin, Myosin II and the like. […] Upstream or downstream inhibition of ROCK, in place of direct ROCK inhibition and in conjunction with the other culture conditions described and required herein, may or may not generate conditionally immortalized gPSCs.

Compound | Effect on cells in culture
C3 transferase | allow the cells to bypass differentiation and allow proliferation in vitro
Cc1ccc2c(c1)C(=O)C1(O)CCN(c3ccccc3)C1=N2 (centres unmarked) [blebbistatin] | allow the cells to bypass differentiation and allow proliferation in vitro
